ChEMBL document CHEMBL1201862, “PubChem BioAssay data set” (2004)
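Results reflect a 48-hour exposure of cells in 96-well plates to compound at five concentrations. GI50: concentration for 50% inhibition of growth.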 Activity calls are given as the source filed them. No stated cut-off is given here; in the data, active = GI50 up to about 1.1 µM and inactive = higher.

Assays:
Test in all cases: growth of human tumour cells (NCI), 48 h
SK-OV-3 = system: SK-OV-3
HT-29 = system: HT-29
KM12 = system: KM12
RPMI-8226 = system: RPMI-8226
SW-620 = system: SW-620
Malme-3M = system: Malme-3M
UO-31 = system: UO-31
ACHN = system: ACHN
HL-60 = system: HL-60
SR = system: SR
CCRF-CEM = system: CCRF-CEM
NCI-H522 = system: NCI-H522
786-0 = system: 786-0
UACC-62 = system: UACC-62
OVCAR-3 = system: OVCAR-3
OVCAR-4 = system: OVCAR-4

Row | Structure (SMILES) | GI50 (SK-OV-3) | GI50 (HT-29) | GI50 (KM12) | GI50 (RPMI-8226) | GI50 (SW-620) | GI50 (Malme-3M) | GI50 (UO-31) | GI50 (ACHN) | GI50 (HL-60) | GI50 (SR) | GI50 (CCRF-CEM) | GI50 (NCI-H522) | GI50 (786-0) | GI50 (UACC-62) | GI50 (OVCAR-3) | GI50 (OVCAR-4)
1 | C[P+](C)(CC(F)(F)F)c1ccccc1 | > 100 µM (inactive) | > 100 µM (inactive) | > 100 µM (inactive) | > 100 µM (inactive) | > 100 µM (inactive) | > 100 µM (inactive) | > 100 µM (inactive) | > 100 µM (inactive) | > 100 µM (inactive) | > 100 µM (inactive) | > 100 µM (inactive) | > 100 µM (inactive) | > 100 µM (inactive) | > 100 µM (inactive) | > 100 µM (inactive) | –
2 | COc1cc2c(cc1OC)c1c(OC)c(OC)cc3c1c1c2sc(=S)n1CC3 | > 100 µM (inactive) | 50.2 µM (inactive) | 55.8 µM (inactive) | 32.1 µM (inactive) | 51.1 µM (inactive) | 86.3 µM (inactive) | > 100 µM (inactive) | > 100 µM (inactive) | 26.9 µM (inactive) | – | 24.5 µM (inactive) | 17.4 µM (inactive) | 18.1 µM (inactive) | 24.4 µM (inactive) | 55.5 µM (inactive) | 55 µM (inactive)
3 | COc1ccc(/C=C2\CCC(C)(CN(C)C)C2=O)cc1OC (stereo not drawn) | – | > 100 µM (inactive) | > 100 µM (inactive) | > 100 µM (inactive) | > 100 µM (inactive) | > 100 µM (inactive) | > 100 µM (inactive) | > 100 µM (inactive) | – | – | > 100 µM (inactive) | > 100 µM (inactive) | > 100 µM (inactive) | > 100 µM (inactive) | > 100 µM (inactive) | > 100 µM (inactive)
4 | OC(c1ccccc1)(c1ccccc1)c1cccnc1 | > 100 µM (inactive) | > 100 µM (inactive) | > 100 µM (inactive) | > 100 µM (inactive) | > 100 µM (inactive) | > 100 µM (inactive) | > 100 µM (inactive) | > 100 µM (inactive) | – | – | > 100 µM (inactive) | – | > 100 µM (inactive) | > 100 µM (inactive) | > 100 µM (inactive) | > 100 µM (inactive)
5 | CC(C)N1CN(C(C(=O)N[C@@H]2C(=O)N3C2SC(C)(C)C3C(=O)O)c2ccccc2)CSC1=S (stereo partly drawn) | > 100 µM (inactive) | 96.6 µM (inactive) | > 100 µM (inactive) | 69.5 µM (inactive) | – | > 100 µM (inactive) | > 100 µM (inactive) | > 100 µM (inactive) | > 100 µM (inactive) | – | > 100 µM (inactive) | 27.8 µM (inactive) | > 100 µM (inactive) | > 100 µM (inactive) | > 100 µM (inactive) | > 100 µM (inactive)
6 | COc1ccc2n[se]nc2c1 | 46.3 µM (inactive) | > 100 µM (inactive) | 56.4 µM (inactive) | > 100 µM (inactive) | > 100 µM (inactive) | 65.8 µM (inactive) | 59.3 µM (inactive) | > 100 µM (inactive) | > 100 µM (inactive) | – | > 100 µM (inactive) | > 100 µM (inactive) | 48.3 µM (inactive) | > 100 µM (inactive) | – | > 100 µM (inactive)
7 | O=[N+]([O-])C(/C=N/Nc1ccccc1)/C=N/Nc1ccccc1 | > 100 µM (inactive) | > 100 µM (inactive) | > 100 µM (inactive) | – | > 100 µM (inactive) | > 100 µM (inactive) | > 100 µM (inactive) | > 100 µM (inactive) | > 100 µM (inactive) | – | > 100 µM (inactive) | > 100 µM (inactive) | > 100 µM (inactive) | > 100 µM (inactive) | > 100 µM (inactive) | > 100 µM (inactive)
8 | N#CCN1CCOCCOCCN(CC#N)CCOCCOCC1 | – | > 100 µM (inactive) | – | > 100 µM (inactive) | > 100 µM (inactive) | > 100 µM (inactive) | > 100 µM (inactive) | > 100 µM (inactive) | > 100 µM (inactive) | > 100 µM (inactive) | > 100 µM (inactive) | – | > 100 µM (inactive) | > 100 µM (inactive) | > 100 µM (inactive) | > 100 µM (inactive)
9 | O=C(CSc1nnc(Cc2ccccc2)o1)Nc1ccc(Cl)cc1 | > 100 µM (inactive) | 47.4 µM (inactive) | > 100 µM (inactive) | > 100 µM (inactive) | > 100 µM (inactive) | > 100 µM (inactive) | > 100 µM (inactive) | 75.9 µM (inactive) | > 100 µM (inactive) | – | > 100 µM (inactive) | 75.3 µM (inactive) | > 100 µM (inactive) | 41.8 µM (inactive) | 68.2 µM (inactive) | 58.7 µM (inactive)
10 | O=C(O)CN(c1ccccc1)S(=O)(=O)c1ccccc1[N+](=O)[O-] | > 100 µM (inactive) | > 100 µM (inactive) | > 100 µM (inactive) | > 100 µM (inactive) | > 100 µM (inactive) | > 100 µM (inactive) | > 100 µM (inactive) | > 100 µM (inactive) | > 100 µM (inactive) | – | > 100 µM (inactive) | > 100 µM (inactive) | > 100 µM (inactive) | > 100 µM (inactive) | > 100 µM (inactive) | > 100 µM (inactive)
11 | CC(=O)Oc1cc2c(cc1OC(C)=O)C1(C)CCC2(C)c2cc(OC(C)=O)c(OC(C)=O)cc21 | 29.2 µM (inactive) | 4.75 µM (inactive) | 11.6 µM (inactive) | 3.52 µM (inactive) | 7.73 µM (inactive) | 13 µM (inactive) | 23.4 µM (inactive) | 26.1 µM (inactive) | 4.13 µM (inactive) | – | 2.87 µM (inactive) | 2.24 µM (inactive) | 15 µM (inactive) | 13.2 µM (inactive) | 10.2 µM (inactive) | 14.4 µM (inactive)
12 | COc1ccc(NC(=O)c2cc(OC)c(OC)c(OC)c2)cc1 | 49.8 µM (inactive) | 36.8 µM (inactive) | 22.8 µM (inactive) | 39.5 µM (inactive) | 39.8 µM (inactive) | 41.6 µM (inactive) | 64.1 µM (inactive) | 83.8 µM (inactive) | 22.2 µM (inactive) | – | 37.8 µM (inactive) | 30.2 µM (inactive) | > 81.8 µM (inactive) | 31 µM (inactive) | 39.1 µM (inactive) | > 100 µM (inactive)
13 | COc1ccc(/C=C/c2cc(OC)c(OC)c(OC)c2)cc1 | 8.59 µM (inactive) | 3.2 µM (inactive) | 3.3 µM (inactive) | 1.09 µM (active) | 5.77 µM (inactive) | 3.27 µM (inactive) | 4.68 µM (inactive) | 5.98 µM (inactive) | 2.75 µM (inactive) | – | 1.66 µM (inactive) | 2.85 µM (inactive) | 11.1 µM (inactive) | 3.25 µM (inactive) | 3.26 µM (inactive) | 41.5 µM (inactive)
14 | CN1CCN(CN2C(=O)C3C4C=CC(C3C2=O)C2C3C(=O)N(CN5CCN(C)CC5)C(=O)C3C42)CC1 (stereo not drawn) | – | 33.4 µM (inactive) | 20.1 µM (inactive) | 24.7 µM (inactive) | 19 µM (inactive) | – | 30.3 µM (inactive) | 28.2 µM (inactive) | – | 16.4 µM (inactive) | 29.2 µM (inactive) | – | 18.2 µM (inactive) | 22.2 µM (inactive) | 21.4 µM (inactive) | 21.3 µM (inactive)
